Experimental data taken from patent US20250049798A1, “WEE1 PROTEIN KINASE DEGRADATION AGENT AND USE THEREOF” (HANGZHOU GLUBIO PHARMACEUTICAL CO. LTD., priority 2021, published 2025).
Converted amounts (≈) assume the structure as drawn. Where two headings read alike, the source gives them in different places.

Assays:
HiBiT tagged Wee1 = HiBiT tagged Wee1 (Homo sapiens, UniProt P30291); assay: Wee1 protein degradation assay (HiBiT assay); type: cell-based; conditions: engineered HT-1080 cells, 20 hours; for Dmax: maximum percentage of Wee1 degradation, read-out: HiBiT Wee1: Dmax
HiBiT tagged Wee1, sequence (P30291 whole entry): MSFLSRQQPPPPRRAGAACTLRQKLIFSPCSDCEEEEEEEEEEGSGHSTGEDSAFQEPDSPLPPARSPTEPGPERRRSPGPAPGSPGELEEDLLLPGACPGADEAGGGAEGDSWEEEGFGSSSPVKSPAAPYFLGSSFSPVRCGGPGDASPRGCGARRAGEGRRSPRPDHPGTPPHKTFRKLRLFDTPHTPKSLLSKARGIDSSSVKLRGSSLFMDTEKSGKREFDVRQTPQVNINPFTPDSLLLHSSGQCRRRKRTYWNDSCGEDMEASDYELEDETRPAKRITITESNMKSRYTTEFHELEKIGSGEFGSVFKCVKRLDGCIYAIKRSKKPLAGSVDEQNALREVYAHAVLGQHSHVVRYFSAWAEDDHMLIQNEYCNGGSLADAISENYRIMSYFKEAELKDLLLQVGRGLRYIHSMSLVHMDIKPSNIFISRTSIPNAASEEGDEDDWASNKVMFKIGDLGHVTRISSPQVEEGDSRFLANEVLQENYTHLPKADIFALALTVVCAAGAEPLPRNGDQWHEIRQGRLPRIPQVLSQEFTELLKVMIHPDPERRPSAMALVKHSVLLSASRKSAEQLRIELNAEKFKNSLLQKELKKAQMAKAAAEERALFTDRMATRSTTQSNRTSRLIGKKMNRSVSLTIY

NCI-H1048 cells = assay: NCI-H1048 cell proliferation assay (CTG assay); type: cell-based; conditions: Homo sapiens, 120 hours, read-out: CTG cellular assay_H1048: IC50
How it was run: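 NCI-H1048 small cell lung cancer cells (RPMI-1640, 10% FBS) were exposed to 10-point half-log compound dilutions from 10 μM to 0.316 nM for 120 h at 37° C., 5% CO2. Viability was read by CellTiter-Glo luminescence and normalized to DMSO as percent of control. EC50 and DC50 were fitted with a four-parameter logistic model.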

[1] = Pharmacokinetic study in mice (IV and PO); type: in vivo; conditions: male CD1 mice; for F: PO (10 mg/kg) vs IV (2 mg/kg); for AUC(0-inf) / clearance / half-life / Cmax: mouse, plasma; for half-life: read-out: T½ (converted)
Protocol: Objective: the objective of this study was to determine the pharmacokinetics of test compound following intravenous (IV) and oral (PO) administration to male CD1 mice.
Materials: Male CD1 mouse (20-30 g, 6-8 weeks, Zhejiang Vital River Laboratory Animal Technology Co., Ltd.).
The CD1 mice were administered with the test article intravenously via tail vein at 2 mg/kg or orally at 10 mg/kg. The animals had free access to food and water. After dose administration, blood was collected from the dorsal metatarsal vein at 5 min (0.0833 h, IV only), 15 min (0.25 h), 30 min (0.5 h), 60 min (1 h), 2 h, 4 h, 6 h, 8 h and 24 h. Blood samples were placed in an anticoagulant tube with EDTA-K2, mixed adequately and centrifuged at 4° C., 4000 g for 5 minutes to get the plasma. The plasma samples were stored at −75±15° C. until analyzed by LC-MS/MS. The PK parameters were calculated using non-compartmental model by Phoenix WinNonlin 6.1 (Linear/log trapezoidal).

[2] = Determination of kinetic solubility; type: physicochemical; conditions: PBS, aqueous buffer, kinetic from dmso stock, shaking at 25° C. for 2 hours
Protocol: An aliquot of 30 μL stock solution (10 mM) was placed in order into their proper 96-well rack. 970 μL of PBS was added into each vial of the cap-less solubility sample plate. The assay was performed in duplicate. In each vial, a stir stick was added and sealed with a molded PTFE/Silicone plug. […] Plugs were removed after 2 hours and the stir sticks were removed using a big magnet. Then the samples were transferred from the solubility sample plate into the filter plate. All the samples were filtered using the vacuum manifold. An aliquot of 5 μL filtrate was mixed with 5 μL DMSO and 490 μL of a mixture of H2O and acetonitrile (v:v, 1:1) containing internal standard. A certain proportion of ultrapure water was used to dilute according to the peak shape. The dilution factor was changed according to the solubility values and the LC-MS/MS signals.
An aliquot of 6 μL stock solution (10 mM in DMSO) was transferred from standard (STD) stock plate into a new plate, and then 194 μL of DMSO was added to get a STD working solution of 300 μM. Then 5 μL of 300 μM working solution was mixed with 5 μL of DMSO and 490 μL of a mixture of H2O and acetonitrile (v:v, 1:1) containing internal standard and the final STD concentration was 3 μM. The STD concentration were changed according to the LC-MS/MS signals.
The sample plate was put into the autosampler and the test compound concentration was determined by LC-MS/MS.

[3] = Permeability study in MDCKII cells (bidirectional A to B and B to A); type: in vitro ADME, Canine; conditions: dog, MDCK; for efflux ratio at 120 min, 1 μM: pH 7.4; for Papp A→B at 120 min, 1 μM / Papp B→A at 120 min, 1 μM: pH 7.4, 120 minutes; for Papp A→B at 120 min, 1 μM: apical to basolateral; for Papp B→A at 120 min, 1 μM: basolateral to apical
Protocol: MDCKII (Madin-Darby Canine Kidney cell line, wild type) cell was obtained from the Netherlands Cancer Institute, which was used for P-gp substrates or inhibitors screening and predicting the permeability of compounds with high efflux barriers such as duodenum, blood-brain barrier, hepatocyte nucleus and renal unit. The MDCKII cells with 10 to 22 passages were used for the permeability investigation.
MDCKII cells were cultured using Minimum Essential Media (MEM) at 37° C., 5% CO2 and 95% relative humidity. The cells were seeded in Transwell plate with 5.45×10^5 cells/cm^2. Then the cells were incubated in CO2 Incubator for 4-7 days for transport studies.
The complete medium was prepared by adding 10% FBS (fetal bovine serum) and 1% glutamax-1 to 500 ml MEM.
The dose concentrations of test compounds and control compounds were 1 μM. The bidirectional (A to B and B to A) permeability was evaluated. All incubations are performed in duplicate.
The regents were pre-incubated at 37±1° C. for 30 minutes. To determine the transport rate from apical to basolateral direction, 125 μL working solution (1 μM) was added to the Transwell insert (apical compartment), and 50 μL sample was immediately transferred from the apical compartment to a new 96-well plate as the initial donor sample (A-B) and mixed with 200 μL of acetonitrile or methanol containing IS. And 235 μL HBSS (10 mM HEPES, pH 7.4) was added to the receiver plate (basolateral compartment). To determine the transport rate from basolateral to apical direction, 285 μL working solution (1 μM) was added to the receiver plate (basolateral compartment), and 50 μL sample was immediately transferred from the basolateral compartment to a new 96-well plate as the initial donor sample (B-A) and mixed with 200 μL of acetonitrile or methanol containing IS. And 75 μL HBSS (10 mM HEPES, pH 7.4) was added to the Transwell insert (apical compartment). Then the plate was incubated at […] with 5% CO2 and 95% relative humidity for 120 minutes.
At the end of incubation, 50 μL samples from donor and receiver sides were transferred into a new 96-well plate. 200 μL of ice-cold acetonitrile or methanol containing appropriate internal standards (IS) was mixed with the samples. After vortex for 10 minutes, the samples are centrifuged at 3220 g for 40 minutes. An aliquot of 100 μL of the supernatant was mixed with appropriate volume of ultra-pure water and was analyzed by LC-MS/MS. All incubations are performed in duplicate.
The integrity of MDCKII cells were checked by Lucifer Yellow Rejection Assay after transport assay. The plate(s) were incubated with Lucifer Yellow solution at 37° C. for 30 minutes. The Lucifer Yellow fluorescence (to monitor monolayer integrity) was measured in a fluorescence plate reader at 480 nm excitation and 530 nm emission.
Test and reference compounds (metoprolol and digoxin) were semi-quantitatively analyzed, and the peak area ratio of the analyte and the internal standard was used to evaluate the concentration of the compounds.

[4] = pH 3.0, read-out: Kinetic solubility (μM) pH 3.0
[5] = pH 5.0, read-out: Kinetic solubility (μM) pH 5.0

Structure (SMILES) | DC50 (HiBiT tagged Wee1) | Dmax (HiBiT tagged Wee1) | IC50 (NCI-H1048 cells) | F [1] | AUC(0-inf) ([1]; IV (2 mg/kg)) | clearance ([1]; IV (2 mg/kg)) | half-life ([1]; IV (2 mg/kg)) | AUC(0-inf) ([1]; PO (10 mg/kg)) | Cmax ([1]; PO (10 mg/kg)) | half-life ([1]; PO (10 mg/kg)) | solubility kinetic at 2 h [2, 4] | solubility kinetic at 2 h [2, 5] | efflux ratio at 120 min, 1 μM [3] | Papp A→B at 120 min, 1 μM [3] | Papp B→A at 120 min, 1 μM [3]
C=CCn1c(=O)c2cnc(Nc3ccc(C4CCN(CC5CCN(c6cccc7c6n(C)c(=O)n7C6CCC(=O)NC6=O)CC5)CC4)cc3)nc2n1-c1cccc(C(C)(C)O)n1 (centres unmarked) [Compound 66] | < 100 nM | 50 to 75% | ≤ 25 nM | 23.6% | 26700 ng·h/mL | 1.25 mL/min/kg | 7 h | 31600 ng·h/mL | 1880 ng/mL | 7.2 h | 252 µM (≈ 212 µg/mL) | 148 µM (≈ 124 µg/mL) |  |  | 
C=CCn1c(=O)c2cnc(Nc3ccc(N4CCN(CC5CCN(c6ccc(NC7CCC(=O)NC7=O)cc6F)CC5)CC4)cc3)nc2n1-c1ccc2c(n1)[C@@](O)(CC)CC2 (mixture of isomers) [Compound 110] | < 100 nM | > 75% | ≤ 25 nM | 106% | 10900 ng·h/mL | 3.24 mL/min/kg | 3.03 h | 53200 ng·h/mL | 4210 ng/mL | 2.95 h | 233 µM | 132 µM | 0.89 | 2.37 ×10⁻⁶ cm/s | 2.11 ×10⁻⁶ cm/s
C=CCn1c(=O)c2cnc(Nc3ccc(N4CCC(CN(C)C5CCN(c6cccc7c6n(C)c(=O)n7C6CCC(=O)NC6=O)CC5)CC4)cc3)nc2n1-c1cccc(C(C)(C)O)n1 (centres unmarked) [Compound 61] | < 100 nM | 50 to 75% | ≤ 25 nM |  |  |  |  |  |  |  | 299 µM (≈ 260 µg/mL) | 203 µM (≈ 176 µg/mL) |  |  | 
C=CCn1c(=O)c2cnc(Nc3ccc(N4CCC(CN5CCC(c6cccc7c6n(C)c(=O)n7C6CCC(=O)NC6=O)CC5)CC4)cc3)nc2n1-c1cccc(C(C)(C)O)n1 (centres unmarked) [Compound 55] | < 100 nM | 50 to 75% | ≤ 25 nM | 38.9% | 6980 ng·h/mL | 4.78 mL/min/kg | 5.7 h | 13600 ng·h/mL | 902 ng/mL | 5.2 h | 194 µM (≈ 163 µg/mL) | 55.7 µM (≈ 46.8 µg/mL) | 2.88 | 2.48 ×10⁻⁶ cm/s | 7.09 ×10⁻⁶ cm/s
